Measurements reported in patent US10702607B2, “Abuse-deterrent pharmaceutical compositions” (priority 2016, dated 2020).

Experiments:
laccase [1] = test: Laccase mediator system (LMS) with oxycodone: oxygen concentration measurement; format: biochemical; conditions: mediator 2 mM, 10 units laccase ml^-1, 1000 mgL^-1 oxycodone
Method: During the reaction oxygen acts as electron acceptor and is reduced to water by laccases while the mediators are oxidized. The concentration of oxygen was measured as described above. Oxygen is consumed until the mediator is fully oxidized. […] The second step of the reaction is initiated by addition of the target substrate, which is consequently oxidized by the mediators.
In the present experiments the final reaction mixtures contained 0.2 to 6 mM mediator, 1-10 units of laccase per ml and 100-3000 mg L^−1 opioid.
The different mediators were used at concentrations of 2 mM with 10 units laccase ml^−1 and 1000 mgL^−1 oxycodone.

laccase [2] = test: Laccase mediator system (LMS) with oxycodone: HPLC-MS/TOF measurement; conditions: mediator 2 mM
pepsin = molecular target: T1, pepsin (Sus scrofa, UniProt P00791); test: Pepsin digestion assay in simulated gastric fluid (SGF) with SDS-PAGE analysis; format: in vitro ADME; conditions: 37° C.
T1 construct: purchased Sigma-Aldrich (US) P7000
T1 sequence (P00791 60-385): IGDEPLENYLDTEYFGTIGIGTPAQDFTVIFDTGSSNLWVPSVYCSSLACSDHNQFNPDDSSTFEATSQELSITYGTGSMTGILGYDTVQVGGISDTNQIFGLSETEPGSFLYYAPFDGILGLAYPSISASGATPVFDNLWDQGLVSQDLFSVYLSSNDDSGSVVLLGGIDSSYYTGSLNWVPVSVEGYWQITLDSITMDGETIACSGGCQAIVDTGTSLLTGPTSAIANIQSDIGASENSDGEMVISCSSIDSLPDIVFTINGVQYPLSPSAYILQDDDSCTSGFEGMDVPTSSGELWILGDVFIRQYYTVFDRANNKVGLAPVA
Method: SGF contains 0.084 M HCl, 0.035 M NaCl, 4000 U of pepsin per reaction mixture and has a pH level of 1.2 according to the United States Pharmacopeia (1995). A ratio of 10000 Units of pepsin activity to 1 mg of test protein was used throughout the assay, which is based on an evaluation of the average activity of pepsin recommended in the United States Pharmacopeia (24th edition, 2000) with some modifications. Pepsin (ref. # P7000) was purchased from Sigma-Aldrich (US). All proteins that were used were dissolved in 50 mM Tris-HCl (pH 9.5) at a concentration of 5 mg mL^−1. The reaction mixture contained 1.52 mL of SGF preheated to 37° C. before the addition of 0.08 mL of protein solution (Thomas et al., 2004). The mixture was placed into a thermomixer at 37° C. and was shaken at 400 rpm. For denaturating SDS-polyacrylamide gel electrophoresis (SDS-PAGE) analysis samples of 160 μl were removed at 0 minutes, 0.5 minutes, and 15 minutes after initiation.
SDS-PAGE was performed to analyze and visually inspect stained protein bands whether the protein band is still intact or fragmented after the digestion assay. […]
Each 160 μl of the digestion samples was quenched by […] of 200 mM NaHCO3 as neutralization step and 56 μl 4× Laemmli (Laemmli 1970) buffer for electrophoresis. Samples were immediately heated up to 99° C. for 10 minutes and analyzed directly or stored at −20° C. […]

| Compound | oxygen concentration after the addition of oxycodone (oxidation of oxycodone) (laccase [1]) | effect of mediator on oxycodone (MS-TOF analysis) (laccase [2]) | proteolytic degradation (pepsin; SGF pH 1.2, pepsin 10000 Units per mg test protein, samples at 0, 0.5, 15 minutes, SDS-PAGE) | protein band on SDS-PAGE after pepsin digestion (pepsin; SGF pH 1.2, pepsin) |
| --- | --- | --- | --- | --- |
| CCOc1cc(C=O)ccc1O [ethylvanillin] | drop in oxygen concentration |  |  |  |
| O=C(O)c1cc(O)c(O)c(O)c1 [gallic acid] | no apparent effect | no apparent effect |  |  |
| COc1cc(C(=O)O)cc(OC)c1O [syringic acid] | drop in oxygen concentration |  |  |  |
| COc1cc(C=O)ccc1O [vanillin] | drop in oxygen concentration |  |  |  |
| HRP: horseradish peroxidase (EC 1.11.1.7) |  |  | very susceptible to proteolytic degradation | vanished within seconds |
